Patent US10759796B2, “CXCR4 inhibitors and uses thereof” (X4 Pharmaceuticals, Inc., priority 2016, dated 2020)
Read-outs that look alike come from different tables or passages of the source.

Columns and labels:
[1] = MTD and pharmacokinetics and brain penetration after PO administration; assay type: in vivo, Male C57BL/6 Mice; conditions: male; for Kp / Kp uu: Mouse; for AUC(0-t): C57BL/6
Protocol: Example 30: MTD and Pharmacokinetics and Brain Penetration Experiment to Determine Brain and Plasma Concentration of Compounds after PO Administration to Male C57BL/6 Mice
The study was designed with 2 groups (18 animals and 24 animals) consists of administrating the drug [PO-50, 100, 150, 225, 300 mg/kg via oral gavage] and collecting samples at terminal bleeding for plasma, brain and CSF at 0.25, 0.5, 1, 4, 8, and 24 hr. All PO dosing solutions were prepared in 50 mM citrate buffer (pH 4.0).
The blood collection was performed as follows: the animal was restrained manually at the designated time points, approximately 500 μL of blood sample was collected via cardiac puncture vein into EDTA-2K tubes. The whole blood needed to be divided into two parts; one part was placed in the tube containing EDTA-2K for plasma generation and the other was used for the hematology assay, respectively. The blood samples for plasma generation were maintained in wet ice first and centrifuged to obtain plasma (2000 g, 4° C., 5 min) within 15 minutes post sampling. The brain collection was performed as follows: a mid-line incision was made in the animal's scalp and the skin was retracted. Using small bone cutters and rongeurs, the skull overlying the brain was removed. The brain was removed using a spatula and rinsed with cold saline. The brain was placed in screw-top tubes, and then stored at −70° C. until analysis. The CSF collection was performed as follows: a mid line incision was made on the neck. The muscle under the skin was cut to expose the cisterna magna. The cisterna magna was penetrated with the sharp end of one capillary (Burn one end of capillary to make it sharp). The CSF was sucked spontaneously into the capillary.
Plasma Sample Preparation:
An aliquot of 30 μL sample was added with 100 μL MeCN containing 100 ng/mL IS (Dexamethasone). The mixture was vortexed for 10 min and centrifuged at 5800 rpm for 10 min. An aliquot of 40 μL supernatant was added to 40 μL H2O and the mixture was vortexed for 5 min. An aliquot of 2 μL supernatant was injected for LC-MS/MS analysis.
Brain Sample Preparation:
An aliquot of 30 μL brain homogenate (brain:PBS=1:3, w/v) sample was added to 100 μL MeCN containing 100 ng/mL IS (Dexamethasone). The mixture was vortexed for 10 min and centrifuged at 5800 rpm for 10 min. An aliquot of 40 μL supernatant was added to 40 μL H2O and the mixture was vortexed for 5 min. An aliquot of 2 μL supernatant was injected for LC-MS/MS analysis.
An aliquot of 3 μL sample was added to a mixture of 6 CSF, 9 μL MeOH/H2O (1/1), 40 μL MeCN containing 200 ng/mL IS (Dexamethasone), and 116 μL H2O. The mixture was vortexed for 5 min. An aliquot of 4 μL was injected for LC-MS/MS analysis.
(§1) The sample analysis was performed on UPLC-MS/MS-02 (Triple Quad 4000) under the following conditions: positive ion, ESI, MRM detection using dexamethasone as internal standard. HPLC conditions: mobile phase A: H2O-0.1% formic acid, mobile phase B: MeCN-0.1% formic acid on: ACQUITY UPLC HSS T3 (2.1×50 mm, 1.8 μm) at 60° C.

[2] = Pharmacokinetics after intravenous or oral administration to dogs; assay type: in vivo; conditions: male, beagle, plasma, dog
Protocol: Example 32: Pharmacokinetics of Compounds After Intravenous or Oral Administration to Male Beagle Dogs
The study design (9 animals, fasted overnight and fed at 4 h post dosing) consists of administrating the drug [IV: 1 mg/kg via cephalic vein injection], [PO: 3 mg/kg and 10 mg/kg via oral gavage] and collecting samples at serial bleeding for plasma at 0.03, 0.08, 0.25, 0.5, 1, 2, 4, 8, 24, 48 and 72 hr. The IV and PO dosing solutions were prepared in 50 mM citrate buffer (pH 4.0) at 0.5 mg/mL, 1.5 mg/mL and 5 mg/mL, respectively. The blood collection was performed as follows: the animals were restrained manually, and approx. 0.5 mL blood/time point was collected from the cephalic vein into pre-cooled K2EDTA tubes. Blood samples were put on wet ice and centrifuged at 4° C. to obtain plasma within 15 minutes of sample collection. All samples were stored at approximately −70° C. until analysis.
Plasma Samples Preparation:
An aliquot of 30 μL sample was added to 100 MeCN containing 200 ng/mL IS (Dexamethasone). The mixture was vortexed for 10 min and centrifuged at 5,800 rpm for 10 min. An aliquot of 30 μL supernatant was added to 60 μL H2O and the mixture was vortexed for 5 min. An aliquot of 4 μL supernatant was injected for LC-MS/MS analysis.
as §1, with “performed using” for “performed on”, “H2O-0.1% FA,” for “H2O-0.1% formic acid,”, “B: ACN-0.1% FA on” for “B: MeCN-0.1% formic acid on:”, “μm) column” for “μm)”

[3] = C57BL/6, brain and plasma, single administration, D1-50 mg/kg PO
[4] = C57BL/6, brain, multiple administration, D5-300 mg/kg PO

Structure (SMILES): CN1CCN(c2cccc3nc([C@H]4CCC[C@@H](c5ncccc5Cl)N4)cn23)CC1 (single isomer, unassigned) [Compound I-188]
- Kp [1, 3]: 2.49
- Kp uu [1, 3]: 0.94
- Kp [1, 4]: 5.61
- Kp uu [1, 4]: 2.12
- AUC(0-t) ([1]; Mouse brain, multiple administration, D5-300 mg/kg PO, read-out: AUClast (b)): 430000 ng·h/mL
- AUC(0-t) ([1]; Mouse brain, single administration, D1-50 mg/kg PO, read-out: AUClast (b)): 58600 ng·h/mL
- AUC(0-t) ([1]; Mouse plasma, multiple administration, D5-300 mg/kg PO, read-out: AUClast (p)): 76600 ng·h/mL
- AUC(0-t) ([1]; Mouse plasma, single administration, D1-50 mg/kg PO, read-out: AUClast (p)): 23500 ng·h/mL
- clearance ([2]; IV: 1 mg/kg): 19.8 mL/min/kg
- half-life ([2]; IV: 1 mg/kg): 1640 min
- Vd ([2]; IV: 1 mg/kg, read-out: Vss): 39 L/kg
- Cmax ([2]; PO: 3 mg/kg): 46.1 ng/mL
- bioavailability ([2]; PO: 3 mg/kg): 65%
- half-life ([2]; PO: 3 mg/kg): 1640 min
- Cmax ([2]; PO: 10 mg/kg): 280 ng/mL
- bioavailability ([2]; PO: 10 mg/kg): 97.8%
- half-life ([2]; PO: 10 mg/kg): 1390 min
- AUC ([2]; IV: 1 mg/kg): 722 ng·h/mL
- AUC ([2]; PO: 3 mg/kg): 1420 ng·h/mL
- AUC ([2]; PO: 10 mg/kg): 7500 ng·h/mL
